These results are taken from US20050054103A1, “Expansion of renewable stem cell populations using modulators of PI 3-kinase” (priority 2003, published 2005).

One series deals with mononuclear cells. The series can be described thus: RAR antagonist treatment of mononuclear cell fraction cultures. It counts as cell-based, human. As to conditions: Cytokines + RAR antagonist 10^−6 M; for % CD34/Lin^−: reselected CD34+ fraction. The procedure:
Human blood cells were obtained from umbilical cord blood from female patients following full-term, normal delivery (informed consent was obtained). Samples were collected and processed within 12 hours postpartum. Blood was mixed with 3% Gelatin (Sigma, St. Louis, Mo.), sedimented for 30 minutes to remove most red blood cells. The leukocyte-rich fraction was harvested and layered on a Ficoll-Hypaque gradient (1.077 gram/ml; Sigma), and centrifuged at 400 g for 30 minutes. The mononuclear cell fraction in the interface layer was collected, washed three times and resuspended in phosphate-buffered saline (PBS) solution (Biological Industries) containing 0.5% bovine serum albumin (BSA, Fraction V; Sigma).
Alternatively, whole mononuclear fraction cells (MNC) were isolated, cultured and supplemented with cytokines, as above.
CD34^+ purified and whole MNC cultures were prepared and maintained as described above. AGN 194310 RAR antagonist was added to test cultures at concentrations ranging from […] [or 410 μg/l to 4.1×10^−5 μg/l]. The antagonist was added for a predetermined, limited period, for up to three weeks or continuously during the entire culture period.
CD34 surface expression on short and long-term cultures initiated either with purified CD34^+ cells or the entire MNC fraction was determined as follows: CD34^+ cells were positively reselected (Miltenyi kit) and counted. Purity was confirmed by subsequent FACS and cell morphology analysis.
Reselected CD34^+ cell subsets were stained for the following combination of antigens: CD34PE/CD38FITC and CD34PE/38, 33, 14, 15, 3, 4, 61, 19 (Lin) FITC. The fraction positive for CD34 and negative for CD38 was defined as CD34^+CD38^−. The fraction positive for CD34 and negative for LIN was defined as CD34^+Lin^− cell fraction.

The test system of a further series is primary hepatocytes. The series can be described thus: Primary hepatocyte cultures with RAR antagonist (AFP/albumin immunostaining, Giemsa). It counts as cell-based, mice. Particulars: for α-fetoprotein (AFP) expression vs control: three week old primary cultures, no cytokines. As for the experimental part: Three intact livers were harvested from 3 week old VLVC female mice (Harlan Laboratories, Jerusalem, Israel), dissected and washed twice with DMEM (Beit Haemek, Israel), incubated with DMEM in the presence 0.05% collagenase for 30 minutes at 37° C., ground and passed through a 200 μm mesh sieve, yielding individual hepatocytes. Cells were washed twice and viability was ascertained with trypan blue. Cells were plated in collagen-coated, 35 mm tissue culture plates at a density of 4-×10^4 live cells/ml in F12 media (containing 15 mM Hepes, 0.1% glucose, 10 mM sodium bicarbonate, 100 units/ml penicillin-streptomycin, glutamine, 0.5 units/ml insulin, 7.5 m cg/ml hydrocortisone, and 10% fetal bovine serum). Medium was changed after 12 hours, the cells were washed twice with phosphate buffered saline (PBS) and new medium was added. Medium was changed twice a week.
Hepatocytes were also grown in the presence of Epidermal Growth Factor (EGF), Platelet-Derived Growth Factor β chain (PDGF-BB), Fibroblast growth Factors (FGF-4) and Hepatocyte Growth Factor (HGF), at 20-50 ng/ml each, for the entire culturing period according to the method of Schwartz et al. (Schwartz R E, Reyes M, Koodie L, Jiang Y, Blackstad M, Lund T, Lenvik T, Johnson S, Hu W S, Verfaillie C M. Multipotent adult progenitor cells from bone marrow differentiate into functional hepatocyte-like cells. J Clin Invest. 2002; 109 (10): 1291-302). Hepatocytes were also grown in serum free medium according to the method of Runge et al. (Runge D, Runge D M, Jager D, Lubecki K A, Beer Stolz D, Karathanasis S, Kietzmann T, Strom S C, Jungermann K, Fleig W E, Michalopoulos G K. Serum-free, long-term cultures of human hepatocytes: maintenance of cell morphology, transcription factors, and liver-specific functions. Biochem Biophys Res Commun. 2000; 269(1): 46-53).
In all of the above-mentioned hepatocytes culture conditions, cells are grown in the presence or absence of the retinoic acid antagonist AGN 194310 at concentrations ranging from 10^−5 M to 10^−9 M.
After a period of 3 weeks, cultures treated with 10^−5 M antagonist were detached with 0.25% trypsin, split and replated at a 1:2 ratio. The cells were either immunostained as described below, or visualized with Giemsa staining.
Murine hepatocyte cultures supplemented with EGF and HGF were evaluated as primary cultures, or following first and second passages. First passage cultures were grown for 2 weeks, split 1:2 and immunostained 8 days later for the presence of albumin, as described below. Second passage cultures were similarly grown for 2 weeks, split 1:2, and grown for an additional week, then split 1:4 and similarly immunostained 4 days later. […]

For series [1], the system named is Normal human erythroid cells. The series can be described thus: Human erythroid two-phase liquid culture. Particulars: TEPA 10 μM in second phase, after 14 days. It counts as cell-based. The procedure:
Peripheral blood mononuclear cells, obtained from an adult normal donor, were cultured in the erythroid two-phase liquid culture system (23-25). The second phase of the culture was supplemented either without or with 10 μM of TEPA. Cultures were analyze for total cells and hemoglobin-containing [benzidine positive (B^+)] cells after 14 days.
Human erythroid cell cultures: Normal human erythroid cells were grown according to the two-phase liquid culture procedure, essentially as described in references 67-70. In the first phase, peripheral blood mononuclear cells were incubated in the presence of early growth factors for 5-7 days. In the second phase, these factors were replaced by the erythroid specific proliferation/differentiation factor, erythropoietin.
The cultures were supplemented with TEPA at the initiation of the second phase. The total cell number and the percentage of hemoglobin-containing cells were determined after 14 days.

With `CCc1ccc(C2=CC(C)(C)Sc3ccc(C#Cc4ccc(C(=O)O)cc4)cc32)cc1` [AGN 194310], the entries for the “No of CD34^+/Lin^− × 10^4 (cumulative value)” value with mononuclear cells (2 weeks) and with mononuclear cells (5 weeks) were 132.5 × 10^4 and 237.8 × 10^4, respectively. Further, the “No of CD34 cells × 10^4 (cumulative value)” value was 169 × 10^4 with mononuclear cells (2 weeks) and 985 × 10^4 with mononuclear cells (5 weeks). Besides, the “% CD34/Lin^−” value was found to be 78% with mononuclear cells (2 weeks) and 24% in the series on mononuclear cells (5 weeks). Further, the “oval cell population (giemsa)” value in the series on primary hepatocytes (10^−5 M, primary cultures) is given as “marked increase in oval cell population”. The “α-fetoprotein (AFP) expression vs control” value in the series on primary hepatocytes (10^−5 M) was “marked increase in AFP expression”; in the series on primary hepatocytes (10^−5 M, listed as retinoic acid antagonist) it was “increase in the fraction of cells that stained positively for α-fetoprotein”. For the same compound, the “numbers of hepatocytes vs controls” value in the series with primary hepatocytes (second passage, EGF + HGF, 10^−5 M to 10^−7 M) is “Significantly greater numbers of hepatocytes”.
Consider `NCCNCCNCCNCCN` [TEPA, tetraethylenepentamine], for which, in series [1], the hemoglobin-containing cells entry is “sharp decrease” and the “total number of cells” value is recorded as “decreased only slightly”.
